From PubChem BioAssay AID248 (DTP/NCI, 2004)
Values joined by “and” are separate entries in the source; they are usually repeats but may differ in a detail not shown here. Equal values may be shown once. Toxic doses and inconclusive results are not listed. Rule as the data show it: active = T/C of 150% or more; inactive = T/C below 125%.

Tested on: L1210 leukemia ip in BDF1 mice, survival T/C
Experiment: NCI In Vivo Anticancer Drug Screen. Data for tumor model L1210 Leukemia (intraperitoneal) in B6D2F1 (BDF1) mice
Settings: higher = longer survival
In short: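 Ratio derived from survival: compound-dosed mice over vehicle-dosed mice, all bearing a transplantable tumor.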

Measured: T/C

CC1CCC(NC(=O)N(CCCl)N=O)CC1 (stereo unspecified)
inactive: endpoint: mean survival time, dose: 0.2 mg/kg/injection, schedule: Q01DX001 (ip), vehicle: clinical formulation 119 % of control | endpoint: mean survival time, dose: 0.45 mg/kg/injection, schedule: Q01DX009 (ip), vehicle: saline with Tween-80 99 % of control and 103 % of control | endpoint: mean survival time, dose: 0.9 mg/kg/injection, schedule: Q01DX009 (ip), vehicle: saline with Tween-80 106 % of control and 118 % of control | endpoint: mean survival time, dose: 1.0 mg/kg/injection, schedule: Q01DX001 (ip), vehicle: other 112 % of control | endpoint: mean survival time, dose: 1.0 mg/kg/injection, schedule: Q04DX002 (ip), vehicle: saline with Tween-80 95 % of control and 100 % of control | endpoint: mean survival time, dose: 2.0 mg/kg/injection, schedule: Q01DX001 (ip), vehicle: other 118 % of control | endpoint: mean survival time, dose: 2.0 mg/kg/injection, schedule: Q01DX009 (ip), vehicle: saline 98 % of control | endpoint: mean survival time, dose: 2.0 mg/kg/injection, schedule: Q04DX002 (ip), vehicle: saline with Tween-80 101 % of control and 120 % of control | endpoint: mean survival time, dose: 2.5 mg/kg/injection, schedule: Q01DX Z (ip), vehicle: Klucel (hydroxypropylcellulose) (HPC) 115 % of control | endpoint: mean survival time, dose: 3.1 mg/kg/injection, schedule: Q07DX003 (ip), vehicle: Klucel (hydroxypropylcellulose) (HPC) 109 % of control | endpoint: mean survival time, dose: 4.0 mg/kg/injection, schedule: Q01DX009 (ip), vehicle: saline 104 % of control | endpoint: mean survival time, dose: 4.0 mg/kg/injection, schedule: Q04DX002 (ip), vehicle: saline with Tween-80 103 % of control and 107 % of control | endpoint: mean survival time, dose: 6.2 mg/kg/injection, schedule: Q07DX003 (ip), vehicle: Klucel (hydroxypropylcellulose) (HPC) 100 % of control | endpoint: mean survival time, dose: 8.0 mg/kg/injection, schedule: Q01DX009 (ip), vehicle: saline 117 % of control | endpoint: mean survival time, dose: 26.0 mg/kg/injection, schedule: Q01DX009 (ip), vehicle: saline with Tween-80 97 % of control and 101 % of control | endpoint: mean survival time, dose: 40.0 mg/kg/injection, schedule: Q04DX004 (ip), vehicle: saline with Tween-80 123 % of control | endpoint: mean survival time, dose: 50.0 mg/kg/injection, schedule: Q07DX003 (ip), vehicle: Klucel (hydroxypropylcellulose) (HPC) 121 % of control | endpoint: mean survival time, dose: 62.0 mg/kg/injection, schedule: Q01DX001 (ip), vehicle: other 109 % of control | endpoint: mean survival time, dose: 72.0 mg/kg/injection, schedule: Q01DX001 (ip), vehicle: other 113 % of control | endpoint: mean survival time, dose: 400.0 mg/kg/injection, schedule: Q01DX001 (ip), vehicle: saline with Tween-80 100 % of control | endpoint: median survival time, dose: 12.5 mg/kg/injection, schedule: Q01DX001 (ip), vehicle: saline with Tween-80 118 % of control and 121 % of control | endpoint: median survival time, dose: 15.0 mg/kg/injection, schedule: Q01DX009 (ip), vehicle: saline 96 % of control | endpoint: median survival time, dose: 100.0 mg/kg/injection, schedule: Q01DX001 (ip), vehicle: saline with Tween-80 106 % of control and 109 % of control
active: endpoint: mean survival time, dose: 0.1 mg/kg/injection, schedule: Q01DX001 (ip), vehicle: clinical formulation 211 % of control | endpoint: mean survival time, dose: 0.4 mg/kg/injection, schedule: Q01DX001 (ip), vehicle: clinical formulation 223 % of control | endpoint: mean survival time, dose: 5.0 mg/kg/injection, schedule: Q01DX Z (ip), vehicle: Klucel (hydroxypropylcellulose) (HPC) 205 % of control | endpoint: mean survival time, dose: 6.0 mg/kg/injection, schedule: Q01DX001 (ip), vehicle: other 154 % of control | endpoint: mean survival time, dose: 6.7 mg/kg/injection, schedule: Q04DX004 (ip), vehicle: saline with Tween-80 206 % of control | endpoint: mean survival time, dose: 8.0 mg/kg/injection, schedule: Q01DX001 (ip), vehicle: other 165 % of control | endpoint: mean survival time, dose: 10.0 mg/kg/injection, schedule: Q01DX001 (ip), vehicle: Klucel (hydroxypropylcellulose) (HPC) 445 % of control | endpoint: mean survival time, dose: 10.0 mg/kg/injection, schedule: Q01DX001 (ip), vehicle: clinical formulation 280 % of control | endpoint: mean survival time, dose: 10.0 mg/kg/injection, schedule: Q01DX001 (ip), vehicle: saline 328 % of control | endpoint: mean survival time, dose: 10.0 mg/kg/injection, schedule: Q01DX001 (iv), vehicle: clinical formulation 186 % of control and 205 % of control and 245 % of control | endpoint: mean survival time, dose: 10.0 mg/kg/injection, schedule: Q01DX Z (ip), vehicle: Klucel (hydroxypropylcellulose) (HPC) 240 % of control and 282 % of control | endpoint: mean survival time, dose: 10.0 mg/kg/injection, schedule: Q04DX004 (ip), vehicle: saline with Tween-80 273 % of control | endpoint: mean survival time, dose: 10.7 mg/kg/injection, schedule: Q01DX001 (ip), vehicle: saline with Tween-80 181 % of control | endpoint: mean survival time, dose: 12.0 mg/kg/injection, schedule: Q01DX001 (ip), vehicle: other 213 % of control | endpoint: mean survival time, dose: 12.5 mg/kg/injection, schedule: Q01DX001 (ip), vehicle: other 241 % of control | endpoint: mean survival time, dose: 12.5 mg/kg/injection, schedule: Q01DX001 (ip), vehicle: saline 172 % of control | endpoint: mean survival time, dose: 12.5 mg/kg/injection, schedule: Q07DX003 (ip), vehicle: Klucel (hydroxypropylcellulose) (HPC) 294 % of control | endpoint: mean survival time, dose: 13.0 mg/kg/injection, schedule: Q01DX001 (ip), vehicle: other 196 % of control | endpoint: mean survival time, dose: 15.0 mg/kg/injection, schedule: Q01DX001 (ip), vehicle: clinical formulation 218 % of control | endpoint: mean survival time, dose: 15.0 mg/kg/injection, schedule: Q01DX001 (ip), vehicle: saline 238 % of control | endpoint: mean survival time, dose: 15.0 mg/kg/injection, schedule: Q01DX001 (iv), vehicle: clinical formulation 326 % of control | endpoint: mean survival time, dose: 15.0 mg/kg/injection, schedule: Q01DX001 (iv), vehicle: saline 154 % of control | endpoint: mean survival time, dose: 15.0 mg/kg/injection, schedule: Q04DX004 (ip), vehicle: saline with Tween-80 319 % of control | endpoint: mean survival time, dose: 16.0 mg/kg/injection, schedule: Q01DX001 (ip), vehicle: other 321 % of control | endpoint: mean survival time, dose: 18.0 mg/kg/injection, schedule: Q01DX001 (ip), vehicle: other 265 % of control | endpoint: mean survival time, dose: 20.0 mg/kg/injection, schedule: Q01DX001 (ip), vehicle: Klucel (hydroxypropylcellulose) (HPC) 442 % of control | endpoint: mean survival time, dose: 20.0 mg/kg/injection, schedule: Q01DX001 (iv), vehicle: Klucel (hydroxypropylcellulose) (HPC) 332 % of control | endpoint: mean survival time, dose: 20.0 mg/kg/injection, schedule: Q01DX001 (iv), vehicle: clinical formulation 371 % of control | endpoint: mean survival time, dose: 20.0 mg/kg/injection, schedule: Q01DX Z (ip), vehicle: Klucel (hydroxypropylcellulose) (HPC) 166 % of control | endpoint: mean survival time, dose: 20.0 mg/kg/injection, schedule: Q04DX004 (ip), vehicle: saline with Tween-80 290 % of control | endpoint: mean survival time, dose: 22.0 mg/kg/injection, schedule: Q01DX001 (ip), vehicle: clinical formulation 255 % of control | endpoint: mean survival time, dose: 22.0 mg/kg/injection, schedule: Q01DX001 (ip), vehicle: saline 326 % of control | endpoint: mean survival time, dose: 22.0 mg/kg/injection, schedule: Q01DX001 (iv), vehicle: clinical formulation 250 % of control | endpoint: mean survival time, dose: 22.0 mg/kg/injection, schedule: Q01DX001 (iv), vehicle: saline 202 % of control | endpoint: mean survival time, dose: 24.0 mg/kg/injection, schedule: Q01DX001 (ip), vehicle: other 252 % of control | endpoint: mean survival time, dose: 24.0 mg/kg/injection, schedule: Q01DX001 (ip), vehicle: saline with Tween-80 436 % of control | endpoint: mean survival time, dose: 24.0 mg/kg/injection, schedule: Q01DX001 (oral), vehicle: other 364 % of control | endpoint: mean survival time, dose: 25.0 mg/kg/injection, schedule: Q01DX001 (ip), vehicle: other 300 % of control | endpoint: mean survival time, dose: 25.0 mg/kg/injection, schedule: Q01DX001 (ip), vehicle: saline 382 % of control | endpoint: mean survival time, dose: 25.0 mg/kg/injection, schedule: Q07DX003 (ip), vehicle: Klucel (hydroxypropylcellulose) (HPC) 214 % of control | endpoint: mean survival time, dose: 27.0 mg/kg/injection, schedule: Q01DX001 (ip), vehicle: other 283 % of control | endpoint: mean survival time, dose: 30.0 mg/kg/injection, schedule: Q01DX001 (ip), vehicle: other 321 % of control | endpoint: mean survival time, dose: 31.0 mg/kg/injection, schedule: Q01DX001 (ip), vehicle: other 357 % of control | endpoint: mean survival time, dose: 33.0 mg/kg/injection, schedule: Q01DX001 (ip), vehicle: saline 326 % of control | endpoint: mean survival time, dose: 33.0 mg/kg/injection, schedule: Q01DX001 (iv), vehicle: saline 297 % of control | endpoint: mean survival time, dose: 40.0 mg/kg/injection, schedule: Q01DX001 (ip), vehicle: Klucel (hydroxypropylcellulose) (HPC) 180 % of control | endpoint: mean survival time, dose: 40.0 mg/kg/injection, schedule: Q01DX001 (ip), vehicle: clinical formulation 404 % of control | endpoint: mean survival time, dose: 40.0 mg/kg/injection, schedule: Q01DX001 (iv), vehicle: Klucel (hydroxypropylcellulose) (HPC) 395 % of control | endpoint: mean survival time, dose: 40.0 mg/kg/injection, schedule: Q01DX001 (iv), vehicle: clinical formulation 188 % of control and 251 % of control | endpoint: mean survival time, dose: 45.0 mg/kg/injection, schedule: Q01DX001 (ip), vehicle: other 304 % of control | endpoint: mean survival time, dose: 50.0 mg/kg/injection, schedule: Q01DX001 (ip), vehicle: other 226 % of control | endpoint: mean survival time, dose: 50.0 mg/kg/injection, schedule: Q01DX001 (ip), vehicle: saline 326 % of control and 360 % of control | endpoint: mean survival time, dose: 64.0 mg/kg/injection, schedule: Q04DX002 (ip), vehicle: saline with Tween-80 294 % of control and 313 % of control | endpoint: mean survival time, dose: 67.0 mg/kg/injection, schedule: Q01DX001 (ip), vehicle: other 230 % of control | endpoint: mean survival time, dose: 75.0 mg/kg/injection, schedule: Q01DX001 (ip), vehicle: saline 219 % of control and 296 % of control | endpoint: mean survival time, dose: 91.0 mg/kg/injection, schedule: Q01DX001 (oral), vehicle: other 280 % of control and 306 % of control and 388 % of control | endpoint: median survival time, dose: 1.8 mg/kg/injection, schedule: Q01DX009 (ip), vehicle: saline 318 % of control | endpoint: median survival time, dose: 7.5 mg/kg/injection, schedule: Q01DX009 (ip), vehicle: saline 211 % of control
